System: coagulation cascade (intrinsic and common pathways of coagulation)
Assay: Partial thromboplastin time (PTT) test of coating agents
Type: biochemical
Details: for Extension of control PTT (in words): versus the respective solvent control, both concentrations tested
Method: A useful test in determining the hemocompatibility of a reagent is the partial thromboplastin time (PTT) test. The PTT is a test of the intrinsic (factors VIII, IX, XI, and XII) and common (fibrinogen, prothrombin, factors V and X) pathways of coagulation. A mixture of plasma and phospholipid platelet substitute (rabbit brain cephalin) is recalcified and the time required for the appearance of fibrin strands measured.
The PTT was tested to determine whether Compound I or Compound II have the ability to extend the control PTT. A test tube of rabbit brain cephalin (Sigma #RBC) in 0.85% NaCl and a test tube of 0.02 M CaCl2 was brought to 37° C. in a water bath. Dade Ci-trol coagulation control lyophilized plasma (Dade International, Inc., product no. 34224-10) was reconstituted in sterile deionized water. In 10×75 mm glass test tubes, 100 μl reconstituted plasma and 100 μl RBC were mixed and incubated at 37° C. in a water bath for 5 minutes. Next, 50 μl of sample (deionized water, a photocrosslinkable polyvinylpyrrolidone (available from SurModics, Inc., product no. PVO5), or Compound I or II) was added and mixed. While simultaneously starting a stop watch, 100 μl of 0.02 M CaCl2 was added to initiate the clotting cascade. After 40 seconds had passed, the test tubes were shaken lightly, observed for fibrin formation, and the number of seconds was recorded.
All samples were tested in duplicate. The appropriate control PTT, depending upon what solvent in which the reagent was dissolved, was subtracted from the average PTT for the reagent to give the time the control PTT was extended.

## O=C(c1ccccc1)c1ccc(COc2cc(S(=O)(=O)[O-])cc(S(=O)(=O)[O-])c2OCc2ccc(C(=O)c3ccccc3)cc2)cc1.[K+].[K+] [Compound I, 4,5-bis(4-benzoylphenylmethyleneoxy) benzene-1,3-disulfonic acid disodium salt]
  Extension of control PTT (in words): considerably extend

## O=C(c1ccccc1)c1ccc(COc2cc(S(=O)(=O)[O-])c(OCc3ccc(C(=O)c4ccccc4)cc3)cc2S(=O)(=O)[O-])cc1.[K+].[K+] [Compound II, 2,5-bis(4-benzoylphenylmethyleneoxy) benzene-1,4-disulfonic acid dipotassium salt]
Higher of the two final concentrations tested, 50% IPA control
  Extension of 50% IPA control PTT: 1 h
  Extension of control PTT (in words): considerably extend
